Test results taken from patent US10274488B2, “Glycan arrays on PTFE-like aluminum coated glass slides and related methods” (Academia Sinica, priority 2008, dated 2019).

Assays:
Assay type in all cases: biochemical, Clostridium thermocellum
exoglucanase L3 = assay: Enzymatic hydrolysis in solution with purified exoglucanase L3, MS-TOF assay; conditions: reaction in solution
Experimental: (§1) To verify, the exoglucanases (L3) and endoglucanase (44A) were prepared according methods well known in the literature with minor modifications. First, enzymatic hydrolysis reactions were conducted in solution with the purified enzymes using substrates 8, 9 and 10. At the completion of the reaction, the solution mixtures were transferred to the PTFE-like ACG slide, and prepared by using the same washing procedures before being subjected to MS-TOF assay.
(§2) For each carbohydrate, a specific enzyme was added: (a) is the control run without enzymes, (b) is exoglucanase L3, and (c) is endoglucanase 44A. […]
(§3) Cellulase was prepared (5 U/mL in 25 mM pH 5.05 NaOAc buffer solution). Substrate was also dissolved in NaOAc buffer solution (25 mM, pH 5.05) to give 0.5 mM substrate solution. Add 100 uL cellulase solution to 100 uL substrate solution in eppendorf to have a 2.5 U/mL cellulase solution with 0.25 mM substrate. This solution was incubated in 37° C. for 18 hours. Add 100 μL incubated solution onto the slide loaded in FAST® Frame. Put the slide in dry box to remove the water, and then use high vacuum to remove trace water. 100 μL water was used to rinse each well of the FAST® Frame multi-slide plate to solve and remove the salt of the buffer solution. Remove any residual water on the plate by high vacuum and then analyzed the slide by MALDI-TOF Ultra-Flex II.
(§4) The genomic DNA of Sulfolobus solfataricus (ATCC 35092) and Clostridium thermocellum (ATCC 27405) were obtained from the ATCC biological resource center. The Sso7d (NCBI accession number: AAK42090) gene fragment was amplified directly from the Sulfolobus solfataricus genome by polymerase chain reaction (PCR) with forward 5′ […] 3′ (SEQ ID NO: 1) and reverse 5′ […] 3′ (SEQ ID NO: 2) primers. The PCR product encoding Sso7d was digested with NdeI and BamHI and subsequently cloned into expression vector pET-28a (Novagen) to generate pET-28-Sso7d. […]

endoglucanase 44A [1] = assay: Enzymatic hydrolysis in solution with purified endoglucanase 44A, MS-TOF assay; conditions: reaction in solution
Experimental: as §1, §2, §3, §4

endoglucanase 44A [2] = assay: Enzymatic hydrolysis on the PTFE-like ACG surface with endoglucanase 44A, MS-TOF assay; conditions: substrate immobilized on the PTFE-like ACG surface
Experimental: as §2
For comparison and as illustrated according to implementations shown in FIG. 23, substrate 8, 9, and 10 were immobilized on the PTFE-like ACG surface and carried out the cellulase hydrolysis on the surface directly, after the same washing procedures, these slides were subjected to MS-TOF assay. […] The endoglucanase 44A can't accept compound 8 or 9 as a substrate. […] From the above results, the cellotetraose substrate 10 was the best carbohydrate to create array on the PTFE-like ACG surface for the experiments conducted. By using this array, the activity and specificity of unknown cellulase may be examined.
Cellulase was prepared (5 U/mL in 25 mM pH 5.05 NaOAc buffer solution). Substrate was also dissolved in NaOAc buffer solution (25 mM, pH 5.05) to give 0.5 mM substrate solution. Add 50 μL cellulase solution to 50 μL substrate solution onto the glass slide which was loaded in FAST® Frame multi-slide plate to have a 2.5 U/mL cellulase solution with 0.25 mM substrate. The well of the plate was sealed and the whole assembly was incubated in 37° C. for 18 hours. Put the slide in dry box to remove the water, and then use high vacuum to remove trace water. 100 uL water was used to rinse each well of the FAST® Frame multi-slide plate to solve and remove the salt of the buffer solution. Remove any residual water on the plate by high vacuum and then analyzed the slide by MALDI-TOF Ultra-Flex II.
as §4, with “primers.” for “primers. The PCR product encoding Sso7d was digested with NdeI and BamHI and subsequently cloned into expression vector pET-28a (Novagen) to generate pET-28-Sso7d.”

Cleavage of the substrate by exoglucanase L3 (in words) (exoglucanase L3) | Cleavage of the substrate by endoglucanase 44A (in words) (endoglucanase 44A [1]) | Cleavage of the substrate by endoglucanase 44A (in words) (endoglucanase 44A [2]) | SMILES
slowly | can't accept | can't accept | O=C(NCCCCCO[C@@H]1O[C@H](CO)[C@@H](O[C@@H]2O[C@H](CO)[C@@H](O)[C@H](O)[C@H]2O)[C@H](O)[C@H]1O)OCCCC(F)(F)C(F)(F)C(F)(F)C(F)(F)C(F)(F)C(F)(F)C(F)(F)C(F)(F)F [Compound 8, [(4,4,5,5,6,6,7,7,8,8,9,9,10,10,11,11,12,12,12-nonadecafluorododecoxycarbonyl-amino)pentyl] ß-D-cellobioside]
quickly | can't accept | can't accept | O=C(NCCCCCO[C@@H]1O[C@H](CO)[C@@H](O[C@@H]2O[C@H](CO)[C@@H](O[C@@H]3O[C@H](CO)[C@@H](O)[C@H](O)[C@H]3O)[C@H](O)[C@H]2O)[C@H](O)[C@H]1O)OCCCC(F)(F)C(F)(F)C(F)(F)C(F)(F)C(F)(F)C(F)(F)C(F)(F)C(F)(F)C(F)(F)F [Compound 9, [(4,4,5,5,6,6,7,7,8,8,9,9,10,10,11,11,12,12,12-nonadecafluorododecoxycarbonyl-amino)pentyl] ß-D-glucopyranosyl-(1→4)-ß-D-glucopyranosyl-(1→4)- -ß-D-glucopyranoside]
